Patent publication EP0649656B1 (priority 1993, dated 1995)
Where a name gives a salt, the structure may show the parent alone.

Legend:
[1] = tested on: virus Herpès simplex type I; experiment: In vivo cutaneous HSV I infection in guinea pigs, local application; design: species or system cobayes albinos (Dunkin-Hartley, IFFA-CREDO); conditions: for infection herpétique cutanée / lésions cutanées: cobayes, application locale deux fois par jour pendant 3 jours, observations jours 5 à 8; for % moyen d'activité: moyenne entre le jour 5 et le jour 8
Description: L'expérimentation a été réalisée en application locale sur des cobayes albinos (Dunkin-Hartley, IFFA-CREDO) auxquels on a préalablement inoculé par scarification le virus Herpès simplex type I. Sur ces scarifications, on a appliqué 0,1 ml d'une solution de virus HSV I titrant 10 000 DI50 pour 100 µl. Un flanc des animaux a servi de témoin. Le traitement a été effectué deux fois par jour pendant 3 jours, la première application ayant lieu 18 h après l'inoculation.
Les paramètres retenus pour déterminer la gravité des lésions cutanées sont : érythèmes, indurations, nombre et taille des vésicules, aires d'infection et présence ou absence de virus. Les observations sont réalisées 5, 6, 7 et 8 jours après l'inoculation.

[2] = cited from earlier work
virus HSV I [3] = experiment: Virucidal activity by contact of the virus with the compounds, infra-cytotoxic doses; assay type: cell-based; conditions: doses infra-cytotoxiques, "-" = absence d'activité
Description: (§1) Dans un premier temps, on a donc déterminé l'activité virucide des différents composés testés par mise en contact du virus avec ces composés. Puis on a déterminé l'activité anti-virale des composés testés en inoculant le virus (sous la forme d'une suspension préalablement diluée dans du milieu de Hanks de manière à avoir une concentration en virus de 100 DE50 pour 10 µl de suspension) à une culture de fibroblastes de poumon embryonnaire (cellules commercialisées par la société Bio-Mérieux sous la référence MCR5), puis en traitant la culture cellulaire, inoculée par le virus, par les composés à tester, dilués également dans du milieu de Hanks. Les plaques de cultures cellulaires ont ensuite été observées au microscope inversé après 24h et 48h d'inoculation, ainsi que des cultures témoins non-inoculées et des virus témoins incubés sans composés. Les résultats sont rassemblés dans le tableau suivant: […]

virus HSV I [4] = experiment: Anti-viral activity in HSV I-inoculated embryonic lung fibroblast culture; assay type: cell-based; conditions: HSV I 100 DE50 pour 10 µl, fibroblastes de poumon embryonnaire MCR5, observation 24h et 48h; "-" = absence d'activité
Description: as §1

[5] = tested on: infections herpétiques buccales et vulvaires; experiment: Human clinical use in buccal and vulvar herpetic infections; assay type: in vivo, humaine
zonas = experiment: Human clinical use in zona; assay type: in vivo; conditions: clinique humaine

Molecule	infection herpétique cutanée / lésions cutanées [1]	% moyen d'activité ([1]; concentration 0,2 %)	solubilité dans l'alcool [2]	solubilité dans l'eau [2]	solubilité dans l'éther [2]	% moyen d'activité ([1]; concentration 1,0 %)	Concentrations minimales activité virucide (virus HSV I [3]) [µg/mL]	Concentrations minimales activité anti-virale (virus HSV I [4]) [µg/mL]	% moyen d'activité ([1]; concentration 2,0 %)	% moyen d'activité ([1]; concentration 4,0 %)	résultats en clinique humaine [5]	éruptions vésiculeuses et névralgies des territoires cutanés infectés (zonas)
Oc1cccc2cccnc12 [8-HQS, sulfate d'hydroxy-8 quinoléine]	aucun effet	0,0%	faiblement soluble	soluble	insoluble							
Nc1nc2c(ncn2COCCO)c(=O)[nH]1 [Acyclovir, 2-amino-1,9-dihydro-9-[(2-hydroxyethoxy)methyl]-6H-purin-6-one]						55,2%						
acriflavine [ACF]	réduisent significativement	0,0%	partiellement soluble	soluble	pratiquement insoluble	44,5%	1	2	81,5%	95,2%	résultats favorables	réduit significativement
